Where two headings read alike, the source gives them in different places.
What was measured:
[1] = human, cells or culture medium
Excerpt: The percentage of acid phosphatase activity in each fraction was used to determine the number of cells that yielded endolysosomes in each fraction. […] The disappearance of the peptide was monitored by RP-HPLC, where the amount of peptide is proportional to the surface area under its peak. Upon degradation the peak area reduced and additional peaks corresponding to degradation products appeared [15].
(§1) We performed a degradation assay as mentioned in Figure 1 and analyzed the peptide fragments produced by mass spectrometry. We compared the degradation of a longer HIV peptide relevant to antigen processing and peptide-based immunogens with crude lysate and purified endolysosomes at pH 5.5 (late endosomal pH) and 4.0 (lysosomal pH) [26]. […] The products of the degradation after a 60-minute incubation with either crude lysate or purified endolysosomes at pH 4.0 and 5.5 were identified by mass spectrometry. […] We compared by mass spectrometry the identity and corresponding peak sirface intensities of all peptides produced in purified endolysosomes and in crude lysate at pH 4 and 5.5 (Additional file 3: Figure S3A).
(§2) Endolysosomes were purified from crude PBMC lysate by differential centrifugation. PBMCs were isolated from human buffy coats using Ficoll centrifugation [29]. Cells resuspended in extraction buffer at a concentration of 5 × 10^8 cells/ml [30] were lysed using glass beads as in a previous study done in our laboratory [31]. The cell lysate was centrifuged at 1000g for 10 min at 4°C. The supernatant was transferred to a new tube and centrifuged at 20,000 g for 20 min at 4°C. The resulting pellet consists of endoplasmic reticulum, mitochondria and endolysosomes. The supernatant corresponds to purified cytosolic fraction. […] 120 μl fractions were collected and further analyzed for endolysosomal enrichment.
The assay is adapted from previously published studies from our laboratory [31]. […] Another 50 μl of the degradation buffer was added to each sample and the amount of peptide remaining was analyzed by RP-HPLC.

in vitro = conditions: human, cells or culture medium, pH 4
Description: These degradation assays were performed in the presence of cathepsin inhibitors to identify specific cathepsins that played a role in antigen processing. […] The products of peptide degradation after 0, 10, 30 and 60 minutes of the reaction were analyzed by RP-HPLC and the percentage of remaining original peptide was quantified from the area under peak (Figure 3A). To rule out any effect of acidic pH on the peptides, the peptide was incubated for the same amount of time with the reaction buffer without any crude lysate and the peptide was quantified by RP-HPLC (Figure 3B). As mentioned in Figure 1D, a half-life of the peptide in the presence or absence of cathepsin can be calculated. […] Therefore, on fitting a one-phase exponential decay curve, we calculated the stability rate of the peptide at each pH (Figure 3C). […] The stability rate of the peptide without inhibitor was assigned a value of one and the fold change in the stability rate in the presence of inhibitors was calculated. […] The experiment was repeated using PBMC lysate from three different healthy donors and the average of three results are shown in Figure 3C.
as §1
8 nM of peptide was incubated with 30 μg of crude PBMC lysate in 250 μl of degradation buffer (20 mM HEPES, 1 mM magnesium chloride, 137 mM potassium acetate, 1 mM ATP) that was adjusted to the appropriate pH. In studies involving purified endolysosome, an acid phosphatase assay was performed on the fractions and the amount of acid phosphatase activity was used to calculate the total number of cells from which each fraction was derived. Using this approach, equivalent amount of cytosol and endolysosome that were derived from the same number of cells were used in peptide degradation assays. […] When using inhibitors, the compound was added to the crude lysate before addition of the peptide and incubated at room temperature for 30 minutes. […] Another 50 μl of the degradation buffer was added to each sample and the amount of peptide remaining was analyzed by RP-HPLC. […]

[2] = Peptide degradation assay in purified cytosol from PBMC; assay type: in vitro ADME; conditions: human, s9, amount equivalent to endolysosomes (same number of cells), 8 nM peptide in degradation buffer (20 mM HEPES, 1 mM MgCl2, 137 mM K acetate, 1 mM ATP), 37°C, % original peptide remaining by RP-HPLC, representative of two replicates
Excerpt: The percentage of acid phosphatase activity in each fraction was used to determine the number of cells that yielded endolysosomes in each fraction. […] The disappearance of the peptide was monitored by RP-HPLC, where the amount of peptide is proportional to the surface area under its peak.
as §2
In studies involving purified endolysosome, an acid phosphatase assay was performed on the fractions and the amount of acid phosphatase activity was used to calculate the total number of cells from which each fraction was derived. […] Another 50 μl of the degradation buffer was added to each sample and the amount of peptide remaining was analyzed by RP-HPLC.

[3] = not given; remark: listed apart in the source

Compound	half-life [1] [min]	half-life (in vitro) [min]	half-life of the peptide in endolysosomes at pH 4.0 (purified endolysosomes, pH 4.0, 37°C, RP-HPLC, data not shown) [min]	half-life at 8 nM [2] [min]	number of peptide fragments identified after degradation in endolysosomes (pH 4) [peptides]	fragments of the crude lysate degradation similar to those produced in endolysosomes, pH 4.0 ([3]; pH 4) [%]	number of peptide fragments identified after degradation in crude lysate ([3]; pH 4) [peptides]	fragments of the crude lysate degradation similar to the endolysosomal fraction, pH 5.5 ([3]; pH 5.5) [%]
CC[C@H](C)[C@H](NC(=O)[C@@H](NC(=O)[C@H](CCC(=O)O)NC(=O)[C@@H]1CCCN1C(=O)[C@H](CO)NC(=O)[C@H](Cc1ccccc1)NC(=O)[C@H](C)NC(=O)[C@@H](N)CCCCN)C(C)C)C(=O)N1CCC[C@H]1C(=O)N[C@@H](CCSC)C(=O)N[C@@H](Cc1ccccc1)C(=O)O [B57KF11]	8	6	8	36	–	–	–	–
KVVEEKAFSPEVIPMFAAL [5-KF11-3]	–	–	–	–	39	84.75	32	76.2

Source: publication PMC3751085, “A simple methodology to assess endolysosomal protease activity involved in antigen processing in human primary cells” (BMC Cell Biology, 2013)
